Data published in patent EP0299457A2, “Novel benzothiophenes having antiallergic activity and both novel and other selected benzothiophenes having activity for treating acute respiratory distress syndrome” (WARNER-LAMBERT COMPANY, priority 1987, dated 1989).
Read-outs that look alike come from different tables or passages of the source.

Assays:
[1] = tested on: CVF Induced Lung Injury in Rats; test: Inhibition of cobra venom factor (CVF) induced lung injury in rats (in vivo ARDS assay); details: for Lung Injury (x ± SEM): saline control 0.20 ± 0.01, CVF alone 1.45 ± 0.19
Excerpt: (§1) The one assay provides IC₅₀'s for the inhibition of superoxide generation. DeChatelet, L. R., Shirley, P. S. and Johnson, R. B. 1976. Effect of phorbol myristate acetate on the oxidative metabolism of human polymorphonuclear leukocytes. Blood 47:545-554. The other assay is a generally recognized in vivo assay to show activity useful for treating ARDS. The in vivo assay is described in J. Clin. Invest., Vol. 69, May 1982, pp 1126-1135.
Accordingly, the compounds of the Formula II are now found to be particularly useful for treating ARDS shown by the inhibition of cobra venom factor (CVF) induced lung injury in rats using the Compound No. 1 above in the in vivo assay shown as follows in Table B: TABLE B

human neutrophils = test: Inhibition of superoxide (O₂⁻) generation from neutrophils; assay type: cell-based; details: Neutrophil
Excerpt: as §1
The activity for each of these compounds as numbered above is expressed as IC₅₀'s for the inhibition of superoxide generation and is shown in the following Table A: TABLE A
Further, activity for compounds of examples noted in the following Table A₁ likewise show IC₅₀'s for the inhibition of superoxide generation. TABLE A1

[2] = given intravenously (20 mg/kg) 10 minutes before intravenous injection of CVF
[3] = injected intraperitoneally (20 mg/kg) 20 minutes before CVF
[4] = Table A, read-out: IC₅₀ (µM) Inhibition of O₂⁻ generation from neutrophils
[5] = Table A1, read-out: IC₅₀ (µM) Inhibition of O₂⁻ generation from neutrophils

Compound	IC50 (human neutrophils; [4]) [µM]	IC50 (human neutrophils; [5]) [µM]	also measured
COc1ccc2sc(C(=O)Nc3nnn[nH]3)c(OC(C)C)c2c1 [Compound No. 1, 5-Methoxy-3-(1-methylethoxy)-N-1H-tetrazol-5-yl-benzo[b]thiophene-2-carboxamide]	19		Protection % Inhibition of Injury [1, 2]: 76%; Lung Injury (x ± SEM) [1, 2]: 0.48 ± 0.08; Protection % Inhibition of Injury [1, 3]: 58%; Lung Injury (x ± SEM) [1, 3]: 0.73 ± 0.06
CC(C)Oc1c(C(=O)Nc2nnn[nH]2)sc2ccc(O)cc12 [Example C20A, 3-(1-Methylethoxy)-5-hydroxy-N-1H-tetrazol-5-yl-benzo[b]-thiophene-2-carboxamide]		48	
COc1cc2sc(C(=O)Nc3nnn[nH]3)c(OCc3ccccc3)c2cc1OC [Example C21A, 5,6-Dimethoxy-3-(phenylmethoxy)-N-1H-tetrazol-5-yl-benzo[b]thiophene-2-carboxamide]		40	
COc1ccc2c(Oc3ccccc3)c(C(=O)Nc3nnn[nH]3)sc2c1 [Example C21D, 6-Methoxy-3-phenoxy-N-1H-tetrazol-5-yl-benzo[b]thiophene-2-carboxamide]		> 100	
COc1cc2sc(C(=O)Nc3nnn[nH]3)c(Oc3ccccc3)c2cc1OC [Example C21]		6	
COc1ccc2c(OC(C)C)c(C(=O)Nc3nnn[nH]3)sc2c1 [compound 2, 6-Methoxy-3-(1-methylethoxy)-N-1H-tetrazol-5-yl-benzo[b]thiophene-2-carboxamide]	37		
COc1ccc2sc(C(=O)Nc3nnn[nH]3)c(SC(C)C)c2c1 [compound 3, 5-Methoxy-3-[(1-methylethyl)thio-N-1Htetrazol-5-yl]-benzo[b]thiophene-2-carboxamide]	23		
COc1ccc2c(OC(C)C)c(C(=O)Nc3nnn[nH]3)oc2c1 [compound 4, 6-Methoxy-3-(1-methylethoxy)-N-1H-tetrazol-5-yl-2-benzofurancarboxamide]	75		
COc1ccc2sc(C(=O)Nc3nnn[nH]3)c(OCc3ccccc3)c2c1 [compound 5, 3-Benzyloxy-5-methoxy-N-1H-tetrazol-5-yl-benzo[b]thiophene-2-carboxamide]	23		
COc1ccc2sc(C(=O)Nc3nnn[nH]3)c(Oc3ccccc3)c2c1 [compound 6, 5-Methoxy-3-phenoxy-N-1H-tetrazol-5-yl-benzo[b]thiophene-2-carboxamide]	10		
